How the values were obtained:
[1] = for Triple point temperature: Adiabatic calorimetry; for Normal melting temperature: DTA
[2] = Molar enthalpy of transition or fusion
[3] = molar heat capacity at constant pressure; details: 101.33 kPa, Small (less than 1 g) adiabatic calorimetry

CCC(=O)[c-]1cccc1.[Fe+2].c1cc[cH-]c1 [propanoylferrocene]
[1], Crystal
Details	Normal melting temperature [°C]	Triple point temperature [K]
–	5.1	276.83

Details	Molar enthalpy of transition or fusion [kcal/mol]	molar heat capacity at constant pressure [J/K/mol]
[2], Crystal, Adiabatic calorimetry	3.04	–
[2], Crystal, DSC	3.51	–
[3], 10 K, Crystal	–	4.607
[3], 15 K, Crystal	–	11.25
[3], 20 K, Crystal	–	18.61
[3], 25 K, Crystal	–	26.27
[3], 30 K, Crystal	–	34.16
[3], 35 K, Crystal	–	42.07
[3], 40 K, Crystal	–	49.63
[3], 45 K, Crystal	–	56.35
[3], 50 K, Crystal	–	61.76
[3], 55 K, Crystal	–	66.08
[3], 60 K, Crystal	–	70.11
[3], 65 K, Crystal	–	74.36
[3], 70 K, Crystal	–	79.11
[3], 75 K, Crystal	–	84.35
[3], 80 K, Crystal	–	89.8
[3], 90 K, Crystal	–	99.79
[3], 100 K, Crystal	–	108.7
[3], 110 K, Crystal	–	116.7
[3], 120 K, Crystal	–	124.2
[3], 130 K, Crystal	–	131.6
[3], 140 K, Crystal	–	138.9
[3], 150 K, Crystal	–	146.4
[3], 160 K, Crystal	–	154
[3], 170 K, Crystal	–	161.9
[3], 180 K, Crystal	–	170
[3], 190 K, Crystal	–	178.3
[3], 200 K, Crystal	–	186.8
[3], 210 K, Crystal	–	195.4
[3], 220 K, Crystal	–	204.1
[3], 230 K, Crystal	–	212.9
[3], 240 K, Crystal	–	221.9
[3], 250 K, Crystal	–	231
[3], 260 K, Crystal	–	240.3
[3], 270 K, Crystal	–	250.1
[3], 280 K, Crystal	–	260.5
[3], 290 K, Crystal	–	271.7
[3], 298.15 K, Crystal	–	280.7
[3], 300 K, Crystal	–	282.7
[3], 310 K, Crystal	–	293.8
[3], 311.13 K, Crystal	–	295
[3], 311.13 K, Liquid	–	347.6
[3], 320 K, Liquid	–	353.3
[3], 330 K, Liquid	–	359.7
[3], 340 K, Liquid	–	365.7
[3], 350 K, Liquid	–	372.9
[3], 360 K, Liquid	–	378.5
[3], 370 K, Liquid	–	381.9

CCC[c-]1cccc1.[Fe+2].c1cc[cH-]c1 [propylferrocene]
Details	Molar enthalpy of transition or fusion, Crystal 1, Adiabatic calorimetry [kcal/mol]	Molar enthalpy of transition or fusion, Crystal 1, DSC [kcal/mol]	Molar enthalpy of transition or fusion, Crystal 2, Adiabatic calorimetry [kcal/mol]	Normal melting temperature, Crystal 1 [°C]	Triple point temperature, Crystal 1 [K]	Triple point temperature, Crystal 2 [K]
[1]	–	–	–	38.47	311.62	186.7
[2]	4.58	4.71	0.294	–	–	–

[3]
Details	molar heat capacity at constant pressure [J/K/mol]
5 K, Crystal 2	0.5339
10 K, Crystal 2	3.806
15 K, Crystal 2	11.48
20 K, Crystal 2	20.55
25 K, Crystal 2	29.5
30 K, Crystal 2	37.6
35 K, Crystal 2	44.82
40 K, Crystal 2	51.46
45 K, Crystal 2	57.41
50 K, Crystal 2	62.94
55 K, Crystal 2	68.11
60 K, Crystal 2	72.96
65 K, Crystal 2	77.55
70 K, Crystal 2	81.91
75 K, Crystal 2	86.11
80 K, Crystal 2	89.89
90 K, Crystal 2	98.25
100 K, Crystal 2	106.2
110 K, Crystal 2	114.1
120 K, Crystal 2	122
130 K, Crystal 2	130.2
140 K, Crystal 2	139.3
150 K, Crystal 2	149.6
160 K, Crystal 2	161.7
170 K, Crystal 2	173.8
180 K, Crystal 2	185.9
186.7 K, Crystal 1	191.3
186.7 K, Crystal 2	194
190 K, Crystal 1	193.3
200 K, Crystal 1	199.5
210 K, Crystal 1	205.6
220 K, Crystal 1	212.1
230 K, Crystal 1	220.2
240 K, Crystal 1	230.2
250 K, Crystal 1	244.6
260 K, Crystal 1	274.7
270 K, Crystal 1	324
276.03 K, Crystal 1	286.8
276.03 K, Liquid	305.9
280 K, Liquid	308.4
290 K, Liquid	314.9
298.15 K, Liquid	319.5
300 K, Liquid	320.5
310 K, Liquid	325.8
320 K, Liquid	331.8
330 K, Liquid	338.2
340 K, Liquid	344.4
350 K, Liquid	350.7
360 K, Liquid	356.6
370 K, Liquid	361.5

— the NIST ThermoML archive (doi:10.1021/je800266e)
